Assays:
[1] = tested on: muscarinic receptors, bronchi; experiment: Receptor bonding test in vivo, bronchi (3H-NMS); set-up: species or system female rats; settings: in vivo binding, i.v., rat, 113 ng/kg 3H-NMS; 30 min
Method: (§1) For these experiments, female rats with a body weight of about 200 g were used. Before the start of the test the animals were anaesthetised with a dosage of 1.25 g/kg of urethane. The animals were each given the prescribed dosage of test substance by intravenous injection. After 15 minutes, 113 ng/kg of ^3 H-N-methylscopolamine (^3 H-NMS) were administered by the same route. After another 15 minutes the animals were killed and the heart, bronchi and lachrymal glands were removed. These organs were dissolved in Soluene R and the radioactivity was determined. The measurements were assumed to be total bonding. […] ID50 values were determined for the individual organs using these tests.

[2] = biological target: T1, muscarinic receptors, ileum (Cavia porcellus, UniProt H0W1Z3); experiment: Dissociation constants (KB) on ileum, methacholine antagonism; settings: guinea pig ileum, 30 min contact, read-out: KB Ileum (dissociation constant)
T1 construct: The ileum was removed and incubated in Krebs-Henseleit solution; from tissue; host or cells: isolated ileum of guinea pig
T1 sequence (H0W1Z3 1-590): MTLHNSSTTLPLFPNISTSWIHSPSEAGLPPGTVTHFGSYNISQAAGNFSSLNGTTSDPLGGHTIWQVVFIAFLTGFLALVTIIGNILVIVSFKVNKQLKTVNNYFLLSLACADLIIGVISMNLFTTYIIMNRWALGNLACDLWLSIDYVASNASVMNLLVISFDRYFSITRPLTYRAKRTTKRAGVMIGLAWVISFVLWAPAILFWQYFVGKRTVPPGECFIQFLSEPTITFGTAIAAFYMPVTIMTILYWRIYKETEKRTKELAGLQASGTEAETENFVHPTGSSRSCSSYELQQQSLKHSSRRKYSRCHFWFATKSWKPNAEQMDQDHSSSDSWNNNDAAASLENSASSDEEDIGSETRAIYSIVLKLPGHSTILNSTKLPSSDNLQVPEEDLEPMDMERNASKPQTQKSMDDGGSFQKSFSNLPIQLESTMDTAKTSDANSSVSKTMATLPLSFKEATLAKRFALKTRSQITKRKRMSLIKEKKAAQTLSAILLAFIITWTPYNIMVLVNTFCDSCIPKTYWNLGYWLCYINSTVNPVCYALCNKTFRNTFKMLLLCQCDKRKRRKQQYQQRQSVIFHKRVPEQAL
Method: Dissociation constants (KB values) were determined in vitro on the guinea pig ileum and spontaneously beating atrium. The ileum was removed and incubated in Krebs-Henseleit solution in an organ bath. Contractions were produced by means of increasing concentrations of methacholine (M) so that a full concentration-activity curve could be plotted.

[3] = biological target: T2, M1 (rise in blood pressure by McN-A-343) (Rattus norvegicus, UniProt P08482); experiment: M1/M2 selectivity in the rat: inhibition of McN-A-343 blood pressure increase (M1); format: in vivo, male THOM rats; settings: iv, 5 min, i.v., 50% reduction in blood pressure rise by 0.3 mg/kg McN-A-343, read-out: M1 activity (rat) ED50
T2 construct: from tissue
T2 sequence (P08482 1-460): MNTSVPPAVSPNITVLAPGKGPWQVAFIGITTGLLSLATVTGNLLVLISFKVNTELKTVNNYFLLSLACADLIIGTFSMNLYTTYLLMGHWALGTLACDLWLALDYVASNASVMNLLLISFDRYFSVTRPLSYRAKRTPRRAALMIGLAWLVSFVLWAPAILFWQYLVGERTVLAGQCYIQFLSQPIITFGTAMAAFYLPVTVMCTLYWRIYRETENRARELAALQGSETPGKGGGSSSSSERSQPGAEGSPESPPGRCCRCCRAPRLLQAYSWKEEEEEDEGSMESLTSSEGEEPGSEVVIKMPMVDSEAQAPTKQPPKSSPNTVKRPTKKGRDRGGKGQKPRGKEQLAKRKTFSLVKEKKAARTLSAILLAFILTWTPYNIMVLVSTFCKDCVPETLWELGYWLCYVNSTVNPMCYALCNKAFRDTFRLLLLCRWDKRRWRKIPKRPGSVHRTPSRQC

[4] = biological target: T3, muscarinic receptors, heart ventricle (Rattus norvegicus, UniProt P10980); experiment: Receptor bonding test in vivo, heart ventricle (3H-NMS); set-up: species or system female rats; settings: iv, 0.5 h, in vivo binding, i.v., 113 ng/kg 3H-NMS, read-out: ID50 Heart Ventricle
T3 construct: the heart, bronchi and lachrymal glands were removed; from tissue; host or cells: heart (atrium, ventricle) of female rats, labelled in vivo
T3 sequence (P10980 1-466): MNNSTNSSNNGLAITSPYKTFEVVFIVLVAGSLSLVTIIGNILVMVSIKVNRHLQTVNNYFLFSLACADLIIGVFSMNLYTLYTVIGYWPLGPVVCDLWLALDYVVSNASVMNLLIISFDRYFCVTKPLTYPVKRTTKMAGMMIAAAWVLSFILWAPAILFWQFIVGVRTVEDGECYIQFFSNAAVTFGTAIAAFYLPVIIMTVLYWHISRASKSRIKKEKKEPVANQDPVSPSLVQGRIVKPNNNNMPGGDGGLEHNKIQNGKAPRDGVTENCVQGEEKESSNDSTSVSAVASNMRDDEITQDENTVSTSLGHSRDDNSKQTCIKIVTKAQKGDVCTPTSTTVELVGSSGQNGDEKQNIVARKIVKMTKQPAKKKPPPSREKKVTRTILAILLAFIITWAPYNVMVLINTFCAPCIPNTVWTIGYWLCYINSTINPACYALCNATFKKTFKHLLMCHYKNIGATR
Method: as §1

[5] = biological target: T4, muscarinic receptors, heart (Rattus norvegicus, UniProt P10980); experiment: Receptor bonding test in vitro, heart (displacement of 3H-N-methylscopolamine); format: binding, Sprague-Dawley rats; settings: for IC50: 0.3 nmolar 3H-NMS, 30° C., 45 min, heart
T4 construct: After removal of the heart and submandibular gland; from tissue; host or cells: whole heart of male Sprague-Dawley rats, homogenate
T4 sequence (P10980 1-466): T3 sequence (P10980 1-466)

[6] = tested on: muscarinic receptors of the atrium; experiment: Dissociation constants (KB) on spontaneously beating right atrium, methacholine antagonism; set-up: species or system guinea pig; settings: Table IV
Method: Dissociation constants (KB values) were determined in vitro on the guinea pig ileum and spontaneously beating atrium. The ileum was removed and incubated in Krebs-Henseleit solution in an organ bath. Contractions were produced by means of increasing concentrations of methacholine (M) so that a full concentration-activity curve could be plotted. Then M was washed out, the test substance was added and kept in contact for 30 minutes and again a concentration-activity curve was plotted with M. The dissociation constant was calculated according to Arunlakshana and Schild (Brit. J. Pharmacol. 14, 48, 1959) from the dosage ratio (DR), i.e. the extent of displacement of the concentration-activity curve.
In the isolated, spontaneously beating right atrium M reduced the heart rate as a function of the concentration. This effect was stopped by the addition of an antimuscarinic. Dissociation constants for the muscarinic receptors of the atrium were obtained in the same way as described above. A comparison of the dissociation constants measured in the two different tissues made it possible to identify cardioselective substances.

[7] = biological target: T5, M2 (vagal bradycardia) (Rattus norvegicus, UniProt P10980); experiment: M1/M2 selectivity in the rat: inhibition of vagally stimulated bradycardia (M2); format: in vivo, male THOM rats; settings: iv, 5 min, i.v., 50% reduction in vagal bradycardia, read-out: M2 activity (rat) ED50
T5 construct: The bradycardia produced by vagus stimulation; from tissue; host or cells: whole animal (male THOM rats), heart
T5 sequence (P10980 1-466): T3 sequence (P10980 1-466)
Method: The method used was described by Hammer and Giachetti (Life Sciences 31, 2991-2998 (1982)). 5 minutes after intravenous injection of increasing doses of the substance, either the right vagus was electrically stimulated (frequency: 25 Hz; pulse width: 2 ms; duration of stimulus: 30 s; number of volts: supramaximal) or 0.3 mg/kg of McN-A-343 was injected intravenously into male THOM rats. The bradycardia produced by vagus stimulation and the increase in blood pressure produced by McN-A-343 were measured.

## CCN(CC)CC1CCCCN1CCNC(=O)N1c2cc(Cl)ccc2C(=O)Nc2cccnc21 (stereo not shown) [Substance C, 9-chloro-11-[[[2-[2-[(diethylamino)methyl]-piperidin-1-yl]ethyl]amino]carbonyl]-5,11-dihydro-6H-pyrido[2,3-b][1,4]benzodiazepin-6-one]
[1]
  ID50 Bronchi: 3.0 mg/kg
[2]
  Kb: 83.2 nM
[3]
  ED50: 0.36 mg/kg
[4]
  ED50: 0.09 mg/kg
[5]
  IC50: 30 nM
[6]
  efficacy compared with X and Y (in words): significantly more effective than X and Y
[7]
  ED50: 0.058 mg/kg

## CCN(CC)CC1CCCCN1CCNC(=O)N1c2ccccc2NC(=O)c2csc(C)c21 (stereo not shown) [Substance B, 4-[[[2-[2-[(diethylamino)methyl]-piperidin-1-yl]ethyl]amino]carbonyl]-4,9-dihydro-3-methyl-10H-thieno[3,4-b][1,5]benzodiazepin-10-one]
[1]
  ID50 Bronchi: 0.15 mg/kg
[2]
  Kb: 3.63 nM
[3]
  ED50: 0.033 mg/kg
[4]
  ED50: 0.006 mg/kg
[5]
  Selectivity factor: Ratio IC50 submandibular gland to IC50 heart: 5
  IC50: 3 nM
[6]
  efficacy compared with X and Y (in words): significantly more effective than X and Y
[7]
  ED50: 0.008 mg/kg

## CCCN(CCC)CC1CCCCN1CCNC(=O)N1c2ccccc2C(=O)Nc2cccnc21 (stereo not shown) [Substance A, 5,11-dihydro-11-[[[2-[2-[(dipropylamino)methyl]-piperidin-1-yl]ethyl]amino]carbonyl]-6H-pyrido[2,3-b][1,4]benzodiazepin-6-one]
[1]
  ID50 Bronchi: 0.7 mg/kg
[2]
  Kb: 25.7 nM
[3]
  ED50: 0.562 mg/kg
[4]
  ED50: 0.15 mg/kg
[5]
  IC50: 20 nM
[6]
  efficacy compared with X and Y (in words): significantly more effective than X and Y
[7]
  ED50: 0.019 mg/kg
